In ChEMBL document CHEMBL1152195, “The discovery of AZD5597, a potent imidazole pyrimidine amide CDK inhibitor suitable for intravenous dosing” (Bioorg Med Chem Lett, 2008):
Values after ≈ are worked out from the molar mass of the structure shown.

How the values were obtained:
[1] = target: Cyclin-dependent kinase 2 (Homo sapiens, UniProt P24941); experiment: Inhibition of CDK2
LoVo = experiment: Antiproliferative activity against human LoVo cells assessed as inhibition of BrdU incorporation after 48 hrs; assay type: functional, cell-based
[2] = target: Cyclin-dependent kinase 1 (Homo sapiens, UniProt P06493); experiment: Inhibition of CDK1
physchem = conditions: buffer, pH 7.4
Description: Equilibrium solubility at pH 7.4 after 24 hrs

[3] = target: Voltage-gated inwardly rectifying potassium channel KCNH2 (Homo sapiens, UniProt Q12809); experiment: Inhibition of human ERG
[4] = Protein binding in rat plasma assessed as fraction unbound; assay type: ADME, cell-free; conditions: read-out: PPB
[5] = Volume of distribution at steady state in rat at 2.5 umol/kg, iv; assay type: ADME, organism-based; conditions: in vivo, read-out: Vdss
[6] = Lipophilicity, log D of the compound; assay type: physicochemical; conditions: octanol/water
[7] = AUC in rat at 2.5 umol/kg, iv; assay type: ADME, organism-based; conditions: plasma
[8] = Dissociation constant, pKa of the compound; assay type: physicochemical
[9] = target: Cyclin-dependent kinase 9 (Homo sapiens) (UniProt P50750); experiment: Inhibition of CDK9
[10] = Clearance in rat at 2.5 umol/kg, iv; assay type: ADME, organism-based; conditions: in vivo
[11] = Protein binding in Han/Wistar rat plasma assessed as fraction unbound; assay type: ADME, cell-free; conditions: read-out: PPB
[12] = Volume of distribution at steady state in Beagle dog at 0.2 umol/kg, iv; assay type: ADME, organism-based, Canis lupus familiaris; conditions: in vivo, read-out: Vdss
[13] = Volume of distribution at steady state in Han/Wistar rat at 2.5 umol/kg, iv; assay type: ADME, organism-based; conditions: in vivo, read-out: Vdss
Cytochrome P450 1A2 = target: T1, Cytochrome P450 1A2 (Homo sapiens, UniProt P05177); experiment: Inhibition of CYP1A2; assay type: ADME
T1 sequence (P05177 whole entry): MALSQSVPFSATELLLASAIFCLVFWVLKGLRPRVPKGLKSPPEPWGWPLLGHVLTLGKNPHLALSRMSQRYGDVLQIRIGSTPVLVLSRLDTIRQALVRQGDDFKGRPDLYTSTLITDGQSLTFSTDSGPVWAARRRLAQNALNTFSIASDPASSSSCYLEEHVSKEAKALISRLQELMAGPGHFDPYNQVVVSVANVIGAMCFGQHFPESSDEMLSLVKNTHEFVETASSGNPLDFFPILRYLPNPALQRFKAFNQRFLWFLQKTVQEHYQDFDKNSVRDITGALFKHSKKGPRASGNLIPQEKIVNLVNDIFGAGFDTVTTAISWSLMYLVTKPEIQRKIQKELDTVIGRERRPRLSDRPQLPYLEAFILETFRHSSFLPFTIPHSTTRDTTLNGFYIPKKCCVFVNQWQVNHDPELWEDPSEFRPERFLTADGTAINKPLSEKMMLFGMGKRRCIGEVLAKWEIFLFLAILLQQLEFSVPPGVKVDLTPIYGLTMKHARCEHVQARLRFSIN

[14] = Stability in rat plasma; assay type: ADME, cell-free; conditions: read-out: Stability
Cytochrome P450 2C9 = Cytochrome P450 2C9 (Homo sapiens, UniProt P11712); experiment: Inhibition of CYP2C9; assay type: ADME
[15] = Stability in dog plasma; assay type: ADME, cell-free, Canis lupus familiaris; conditions: read-out: Stability
Cytochrome P450 2C19 = Cytochrome P450 2C19 (Homo sapiens, UniProt P33261); experiment: Inhibition of CYP2C19; assay type: ADME
SW-620 = experiment: Antitumor activity against human SW620 cells xenografted nude mouse assessed as inhibition of tumor volume at 15 mg/kg, ip administered thrice a week for 3 weeks; assay type: functional; conditions: SW-620, ip, 504 h, route intraperitoneal
[16] = Clearance in Han/Wistar rat at 2.5 umol/kg, iv; assay type: ADME, organism-based; conditions: in vivo
Plasma = experiment: Protein binding in Beagle dog plasma assessed as fraction unbound; assay type: ADME, cell-free, Canis lupus familiaris
[17] = Stability in human plasma; assay type: ADME, cell-free; conditions: read-out: Stability
[18] = Volume of distribution at steady state in nude mouse at 5 umol/kg, iv; assay type: ADME, organism-based; conditions: in vivo, read-out: Vdss
[19] = Clearance in nude mouse at 5 umol/kg, iv; assay type: ADME, organism-based; conditions: in vivo
[20] = Half life in Han/Wistar rat at 2.5 umol/kg, iv; assay type: ADME, organism-based; conditions: in vivo
[21] = Half life in Beagle dog at 0.2 umol/kg, iv; assay type: ADME, organism-based, Canis lupus familiaris; conditions: in vivo
[22] = Photostability assessed as half life; assay type: physicochemical
Canis familiaris [23] = species on record: Canis familiaris; experiment: Clearance in Beagle dog assessed as liver blood flow; assay type: ADME, organism-based, Canis lupus familiaris; conditions: in vivo
[24] = Hydrolytic stability assessed as half life at pH 4 to 10; assay type: physicochemical; conditions: buffer
[25] = Protein binding in nude mouse plasma assessed as fraction unbound; assay type: ADME, cell-free; conditions: read-out: PPB
Rattus norvegicus = experiment: AUC in Han/Wistar rat at 2.5 umol/kg, iv; assay type: ADME, organism-based, Plasma; conditions: in vivo
[26] = Clearance in Beagle dog at 0.2 umol/kg, iv; assay type: ADME, organism-based, Canis lupus familiaris; conditions: in vivo
[27] = Half life in nude mouse at 5 umol/kg, iv; assay type: ADME, organism-based; conditions: in vivo
[28] = Aqueous solubility in saline at pH 5; assay type: physicochemical; conditions: read-out: Activity
Cytochrome P450 2D6 = Cytochrome P450 2D6 (Homo sapiens, UniProt P10635); experiment: Inhibition of CYP2D6; assay type: ADME
Cytochrome P450 3A4 = Cytochrome P450 3A4 (Homo sapiens, UniProt P08684); experiment: Inhibition of CYP3A4; assay type: ADME
Mus musculus = experiment: AUC in nude mouse at 5 umol/kg, iv; assay type: ADME, organism-based, Plasma; conditions: in vivo
Canis familiaris [29] = experiment: AUC in Beagle dog at 0.2 umol/kg, iv; assay type: ADME, organism-based, Canis lupus familiaris, Plasma; conditions: in vivo
[30] = AUC in rat at 1 umol/kg, iv; assay type: ADME, organism-based; conditions: plasma
[31] = Clearance in rat at 1 umol/kg, iv; assay type: ADME, organism-based; conditions: in vivo
[32] = Volume of distribution at steady state in rat at 1 umol/kg, iv; assay type: ADME, organism-based; conditions: in vivo, read-out: Vdss

Chain of Voltage-gated inwardly rectifying potassium channel KCNH2 (Q12809 whole entry): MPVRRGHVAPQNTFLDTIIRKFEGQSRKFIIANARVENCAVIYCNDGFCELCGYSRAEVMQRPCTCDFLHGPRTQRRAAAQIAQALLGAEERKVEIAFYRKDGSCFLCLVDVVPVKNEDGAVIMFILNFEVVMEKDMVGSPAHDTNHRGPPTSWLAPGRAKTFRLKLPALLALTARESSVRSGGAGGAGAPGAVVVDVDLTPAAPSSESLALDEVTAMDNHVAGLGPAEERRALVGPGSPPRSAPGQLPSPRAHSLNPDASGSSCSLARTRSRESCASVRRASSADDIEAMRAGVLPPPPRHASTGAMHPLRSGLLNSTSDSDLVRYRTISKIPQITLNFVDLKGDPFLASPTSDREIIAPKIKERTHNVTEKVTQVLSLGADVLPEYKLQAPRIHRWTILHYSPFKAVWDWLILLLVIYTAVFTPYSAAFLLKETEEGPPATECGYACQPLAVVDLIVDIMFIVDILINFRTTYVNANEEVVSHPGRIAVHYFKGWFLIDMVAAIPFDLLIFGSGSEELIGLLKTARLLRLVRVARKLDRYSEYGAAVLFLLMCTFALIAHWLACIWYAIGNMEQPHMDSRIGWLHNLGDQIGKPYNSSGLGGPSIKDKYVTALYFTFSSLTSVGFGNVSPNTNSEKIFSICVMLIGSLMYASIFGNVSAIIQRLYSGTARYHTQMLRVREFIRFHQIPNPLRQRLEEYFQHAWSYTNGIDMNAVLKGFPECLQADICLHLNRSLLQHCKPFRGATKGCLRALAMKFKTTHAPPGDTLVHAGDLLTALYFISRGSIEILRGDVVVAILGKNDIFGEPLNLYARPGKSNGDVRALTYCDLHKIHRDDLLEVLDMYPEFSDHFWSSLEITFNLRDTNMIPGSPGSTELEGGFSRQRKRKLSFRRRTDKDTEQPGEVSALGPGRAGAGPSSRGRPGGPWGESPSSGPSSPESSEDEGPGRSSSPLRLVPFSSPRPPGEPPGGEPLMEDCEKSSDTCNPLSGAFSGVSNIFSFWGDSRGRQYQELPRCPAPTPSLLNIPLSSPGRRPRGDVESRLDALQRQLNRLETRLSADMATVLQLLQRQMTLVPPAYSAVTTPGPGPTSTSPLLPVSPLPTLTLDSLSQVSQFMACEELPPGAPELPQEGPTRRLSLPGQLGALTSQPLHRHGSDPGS
Chain of Cyclin-dependent kinase 1 (P06493 whole entry): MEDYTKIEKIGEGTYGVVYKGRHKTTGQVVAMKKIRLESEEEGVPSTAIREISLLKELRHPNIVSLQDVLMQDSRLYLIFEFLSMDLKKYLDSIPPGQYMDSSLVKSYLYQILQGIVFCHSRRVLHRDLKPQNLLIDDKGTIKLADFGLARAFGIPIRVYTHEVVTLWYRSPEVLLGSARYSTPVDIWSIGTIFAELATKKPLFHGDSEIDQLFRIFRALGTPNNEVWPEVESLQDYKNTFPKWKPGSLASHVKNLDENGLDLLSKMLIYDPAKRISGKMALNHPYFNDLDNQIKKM
Chain of Cyclin-dependent kinase 9 (Homo sapiens) (P50750 whole entry): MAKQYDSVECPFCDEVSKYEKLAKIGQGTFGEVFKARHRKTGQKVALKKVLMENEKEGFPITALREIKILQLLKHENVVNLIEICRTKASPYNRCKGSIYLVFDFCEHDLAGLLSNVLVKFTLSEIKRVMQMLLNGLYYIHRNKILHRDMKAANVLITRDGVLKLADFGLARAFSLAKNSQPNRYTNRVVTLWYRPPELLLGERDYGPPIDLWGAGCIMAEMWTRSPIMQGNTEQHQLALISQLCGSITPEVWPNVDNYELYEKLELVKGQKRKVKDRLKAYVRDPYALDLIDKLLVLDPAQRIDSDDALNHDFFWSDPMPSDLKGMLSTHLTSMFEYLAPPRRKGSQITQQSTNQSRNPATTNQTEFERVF
Chain of Cytochrome P450 2D6 (P10635 whole entry): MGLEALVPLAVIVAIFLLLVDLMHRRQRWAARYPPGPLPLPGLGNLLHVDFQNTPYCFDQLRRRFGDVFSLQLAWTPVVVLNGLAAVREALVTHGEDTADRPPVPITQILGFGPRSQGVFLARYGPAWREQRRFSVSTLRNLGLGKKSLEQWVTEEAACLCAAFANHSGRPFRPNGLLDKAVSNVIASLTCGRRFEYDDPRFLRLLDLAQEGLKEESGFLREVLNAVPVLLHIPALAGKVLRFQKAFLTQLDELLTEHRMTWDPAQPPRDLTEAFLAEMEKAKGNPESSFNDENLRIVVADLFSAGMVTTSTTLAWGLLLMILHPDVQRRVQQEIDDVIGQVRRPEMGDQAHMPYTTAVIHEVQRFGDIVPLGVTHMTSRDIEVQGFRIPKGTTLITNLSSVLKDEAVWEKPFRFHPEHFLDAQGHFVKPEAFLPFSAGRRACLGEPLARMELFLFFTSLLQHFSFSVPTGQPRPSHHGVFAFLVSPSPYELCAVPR
Chain of Cytochrome P450 3A4 (P08684 whole entry): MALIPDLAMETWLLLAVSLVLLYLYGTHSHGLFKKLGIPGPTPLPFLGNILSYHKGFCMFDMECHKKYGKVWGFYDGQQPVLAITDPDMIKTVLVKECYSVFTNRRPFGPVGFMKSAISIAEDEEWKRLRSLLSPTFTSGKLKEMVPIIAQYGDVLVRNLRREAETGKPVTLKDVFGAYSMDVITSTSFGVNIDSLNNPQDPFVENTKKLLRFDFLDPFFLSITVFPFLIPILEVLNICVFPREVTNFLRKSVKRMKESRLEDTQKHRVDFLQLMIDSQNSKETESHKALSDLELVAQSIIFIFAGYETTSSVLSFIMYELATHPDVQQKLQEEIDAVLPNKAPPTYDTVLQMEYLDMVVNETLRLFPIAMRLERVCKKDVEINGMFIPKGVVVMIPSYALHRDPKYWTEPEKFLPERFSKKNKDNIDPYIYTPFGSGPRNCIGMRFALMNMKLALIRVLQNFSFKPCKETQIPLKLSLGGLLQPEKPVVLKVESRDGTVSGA
Chain of Cytochrome P450 2C9 (P11712 whole entry): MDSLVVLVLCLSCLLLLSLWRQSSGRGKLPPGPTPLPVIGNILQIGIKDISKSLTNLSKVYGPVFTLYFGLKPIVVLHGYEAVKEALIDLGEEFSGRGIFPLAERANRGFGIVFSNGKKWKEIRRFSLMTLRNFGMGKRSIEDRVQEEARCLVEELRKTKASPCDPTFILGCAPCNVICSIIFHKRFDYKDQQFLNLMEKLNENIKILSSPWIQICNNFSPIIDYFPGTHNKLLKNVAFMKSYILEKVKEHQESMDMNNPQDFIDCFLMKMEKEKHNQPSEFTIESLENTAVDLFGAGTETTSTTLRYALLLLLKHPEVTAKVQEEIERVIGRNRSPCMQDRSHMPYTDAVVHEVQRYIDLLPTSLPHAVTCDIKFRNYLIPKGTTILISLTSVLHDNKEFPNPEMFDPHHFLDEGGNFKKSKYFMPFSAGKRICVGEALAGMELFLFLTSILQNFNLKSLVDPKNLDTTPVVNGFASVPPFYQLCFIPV
Chain of Cytochrome P450 2C19 (P33261 whole entry): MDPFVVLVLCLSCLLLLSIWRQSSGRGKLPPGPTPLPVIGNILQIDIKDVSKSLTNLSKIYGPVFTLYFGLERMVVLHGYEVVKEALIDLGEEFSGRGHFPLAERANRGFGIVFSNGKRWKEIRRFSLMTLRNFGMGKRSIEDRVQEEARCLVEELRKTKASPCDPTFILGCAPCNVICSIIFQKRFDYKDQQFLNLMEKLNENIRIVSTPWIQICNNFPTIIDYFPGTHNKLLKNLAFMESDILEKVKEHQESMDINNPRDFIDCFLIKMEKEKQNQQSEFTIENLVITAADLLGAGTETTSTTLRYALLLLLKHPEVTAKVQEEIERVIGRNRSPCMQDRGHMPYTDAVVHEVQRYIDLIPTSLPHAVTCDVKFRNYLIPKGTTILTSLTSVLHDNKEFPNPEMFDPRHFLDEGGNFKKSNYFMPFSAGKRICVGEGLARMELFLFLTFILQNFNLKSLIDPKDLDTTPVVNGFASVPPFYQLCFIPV

Cc1ncc(-c2ccnc(Nc3ccc(C(=O)NC4CCN(C)CC4)cc3)n2)n1C(C)C
IC50 [1]: 37 nM | IC50 (LoVo): 2100 nM | IC50 [2]: 180 nM

CCCN(C)[C@H]1CCN(C(=O)c2ccc(Nc3nccc(-c4cnc(C)n4C(C)C)n3)cc2)C1
IC50 [1]: 4 nM | IC50 (LoVo): 62 nM | IC50 [2]: 120 nM

Cc1ncc(-c2nc(Nc3ccc(C(=O)NCCN(C)C)c(F)c3)ncc2F)n1C(C)C
IC50 [1]: 2 nM | IC50 (LoVo): 2 nM | solubility thermodynamic at 24 h (physchem): > 2700 µM | Activity [3]: > 65 µM | fraction unbound [4]: 0.07 | IC50 [2]: < 1 nM | Vd [5]: 9.8 L/kg | logD [6]: 2.3 | AUC [7]: 0.8 µM·h | pKa [8]: 8.6 | Activity [9]: 0.003 µM | clearance [10]: 24 mL/min/kg

CN[C@H]1CCN(C(=O)c2ccc(Nc3ncc(F)c(-c4cnc(C)n4C(C)C)n3)cc2)C1
IC50 [1]: 2 nM | fraction unbound [11]: 0.04 | IC50 (LoVo): 39 nM | Vd [12]: 40.4 L/kg | Vd [13]: 6.4 L/kg | Activity (Cytochrome P450 1A2): > 10 µM | half-life [14]: > 18 h | Activity (Cytochrome P450 2C9): > 10 µM | half-life [15]: > 18 h | Activity (Cytochrome P450 2C19): > 10 µM | inhibition in vivo at 15 mg/kg (SW-620): 55% | clearance [16]: 30 mL/min/kg | PPB (Plasma): > 67% | half-life [17]: > 18 h | Vd [18]: 5.1 L/kg | Activity [3]: 95 µM | clearance [19]: 35 mL/min/kg | half-life [20]: 3.6 h | half-life [21]: 32.3 h | half-life [22]: > 24 h | IC50 [2]: 2 nM | %hepatic blood flow (Canis familiaris [23]): 58% | half-life [24]: > 100 days | logD [6]: 1.45 | fraction unbound [25]: 0.16 | AUC (Rattus norvegicus): 1.38 µM·h | clearance [26]: 19 mL/min/kg | half-life [27]: 3.4 h | solubility [28]: > 50 µM | Activity (Cytochrome P450 2D6): > 10 µM | Activity (Cytochrome P450 3A4): > 10 µM | AUC (Mus musculus): 2.4 µM·h | AUC (Canis familiaris [29]): 0.18 µM·h

Cc1ncc(-c2ccnc(Nc3ccc(C(=O)NCCN(C)C)c(F)c3)n2)n1C(C)C
IC50 (LoVo): 3 nM | solubility thermodynamic at 24 h (physchem): > 1900 µM | IC50 [2]: 29 nM

Cc1ncc(-c2ccnc(Nc3ccc(C(=O)N4CC[C@H](NC5CC5)C4)cc3)n2)n1C(C)C
IC50 [1]: < 1 nM | IC50 (LoVo): 250 nM | IC50 [2]: 100 nM

Cc1ncc(-c2nc(Nc3ccc(C(=O)N4CCCN(C)CC4)cc3)ncc2F)n1C(C)C
IC50 [1]: 2 nM | IC50 (LoVo): 40 nM | AUC [30]: 0.3 µM·h | clearance [31]: 28 mL/min/kg | solubility thermodynamic at 24 h (physchem): > 2600 µM | Vd [32]: 1.5 L/kg | Activity [3]: > 32 µM | fraction unbound [4]: 0.07 | IC50 [2]: 5 nM | logD [6]: 2 | pKa [8]: 8.1 | Activity [9]: 0.012 µM

Cc1ncc(-c2nc(Nc3ccc(C(=O)N4CC[C@@H](N(C)C)C4)cc3)ncc2F)n1C(C)C
IC50 (LoVo): 70 nM | solubility thermodynamic at 24 h (physchem): > 2400 µM | IC50 [2]: 11 nM

CN[C@H]1CCN(C(=O)c2ccc(Nc3nccc(-c4cnc(C)n4C(C)C)n3)cc2)C1
IC50 [1]: 2 nM | IC50 (LoVo): 180 nM | IC50 [2]: 9 nM

Cc1ncc(-c2ccnc(Nc3ccc(C(=O)N4CCN(C)CC4)cc3)n2)n1C(C)C
IC50 [1]: 9 nM | IC50 (LoVo): 520 nM | IC50 [2]: 71 nM | pKa [8]: 7

Cc1ncc(-c2nc(Nc3ccc(C(=O)N4CCN(C)CC4)cc3)ncc2F)n1C(C)C
IC50 [1]: 18 nM | IC50 (LoVo): 170 nM | solubility thermodynamic at 24 h (physchem): 60 µM (≈ 26.3 µg/mL) | IC50 [2]: 130 nM | pKa [8]: 6.9

Cc1ncc(-c2nc(Nc3ccc(C(=O)NC4CCN(C)CC4)cc3)ncc2F)n1C(C)C
IC50 [1]: 36 nM | IC50 (LoVo): 320 nM | solubility thermodynamic at 24 h (physchem): > 2500 µM | IC50 [2]: 50 nM

Cc1ncc(-c2nc(Nc3ccc(C(=O)NC4CCN(C)CC4)c(F)c3)ncc2F)n1C(C)C
IC50 [1]: 1 nM | IC50 (LoVo): 80 nM | solubility thermodynamic at 24 h (physchem): 270 µM (≈ 127 µg/mL) | fraction unbound [4]: 0.06 | IC50 [2]: 12 nM | Vd [5]: 5.2 L/kg | logD [6]: 2.4 | AUC [7]: 1.3 µM·h | pKa [8]: 8.8 | Activity [9]: 0.013 µM | clearance [10]: 16 mL/min/kg

Cc1ncc(-c2ccnc(Nc3ccc(C(=O)NC4CCN(C)CC4)c(F)c3)n2)n1C(C)C
IC50 [1]: 11 nM | IC50 (LoVo): 200 nM | solubility thermodynamic at 24 h (physchem): > 2200 µM | IC50 [2]: 150 nM

Cc1ncc(-c2nc(Nc3ccc(C(=O)N4CC[C@H](N(C)C)C4)cc3)ncc2F)n1C(C)C
IC50 (LoVo): 37 nM | solubility thermodynamic at 24 h (physchem): > 2100 µM | Activity [3]: 33 µM | fraction unbound [4]: 0.04 | IC50 [2]: 11 nM | Vd [5]: 3.4 L/kg | logD [6]: 2.1 | AUC [7]: 0.8 µM·h | pKa [8]: 7.4 | Activity [9]: 0.005 µM | clearance [10]: 23 mL/min/kg
